Measurements from patent EP1902732A1, “PROPHYLACTIC/THERAPEUTIC AGENT FOR HER2-EXPRESSING CANCER” (Takeda Pharmaceutical Company Limited, priority 2005, dated 2006).

Tests used:
[1] = tested on: HER2; assay: Western blotting of phosphorylated HER2 in BT-474 cells; type: cell-based, human
Protocol: Human HER2-expressing human breast cancer cell line BT-474 (purchased from American Tissue Culture Collection (ATCC)) was seeded into a 24-multiwell plate (BT-474: 1.2 x 10^5 cells/well), and cultured overnight in a carbon dioxide gas incubator (5% CO2, 37°C). A 4-fold dilution series of a mitochondrial respiratory chain complex inhibiting compound (complex I: rotenone, complex III: antimycin, complex V: oligomycin: Wako Pure Chemical Industries) was added starting from a final concentration of 1 µmol/L in 5 steps while continuing culture. After 2 hours, the broth was removed, and the cells were lysed with an SDS sample buffer (200 µL). Western blotting analysis was performed as follows. Specifically, this cell lysate (8 µL) was separated by an SDS-PAGE method (gel concentration: 7.5-15%) (Analytical Biochemistry, No. 166, pp. 368-379, 1987), and transferred to a nitrocellulose membrane (BioRad). Then, an antibody specific to phosphorylated HER2 (Cell signaling technology, Code# 2244), an anti-phosphorylated Akt antibody specific to downstream antiapoptotic signal transducing molecule Akt (Cell signaling technology, Code# 9271) and an anti-phosphorylated MAPK antibody specific to downstream proliferation signal transducing molecule MAPK (Cell signaling technology, Code# 9101) were used to detect the antibody with an ECL system (Amersham) to quantify the amount of phosphorylated protein by an image analysis.
Human HER2-expressing human cancer cell line BT-474 (purchased from ATCC) was seeded into a 24-multiwell plate (1.2 x 10^5 cells/well) and cultured overnight in a carbon dioxide gas incubator (20% O2, 5% CO2, 37°C). A 3-fold dilution series of metformin that activates AMPK (The Journal of Biological Chemistry, Vol. 279, No. 42, pp. 43940-43951, 2004) was added starting from a final concentration of 15 mmol/L in 5 steps while continuing culture. Two hours later, the broth was removed and the cells were lysed with an SDS sample buffer (200 µL). This cell lysate (8 µL) was separated by an SDS-PAGE method (gel concentration: 7.5-15%) (Analytical Biochemistry, No. 166, pp. 368-379, 1987). Then, western blotting analysis was performed in the same manner as in Example 1 to quantify phosphorylated HER2, phosphorylated Akt and phosphorylated MAPK.
Human HER2-expressing human breast cancer cell line BT-474 (purchased from American Tissue Culture Collection (ATCC)) was seeded into a 24-multiwell plate (BT-474: 1.2 x 10^5 cells/well), and cultured overnight in a carbon dioxide gas incubator (5% CO2, 37°C). Mitochondrial respiratory chain complex 1-inhibiting compound rotenone (Wako Pure Chemical Industries) was added in 5 steps at final concentrations of 1, 0.333, 0.111, 0.033 and 0.011 µmol/L while continuing culture. Two hours later, the broth was removed and the cells were lysed with an SDS sample buffer (200 µL). Then, this cell lysate was used to perform western blotting analysis. Specifically, this cell lysate (8 µL) was separated by an SDS-PAGE method (gel concentration: 7.5-15%) (Analytical Biochemistry, No. 166, pp. 368-379, 1987) and transferred to a nitrocellulose membrane (BioRad). Then, an antibody specific to phosphorylated HER2 (Cell signaling technology, Code# 2244), an AMPK antibody specific to AMPK (Cell signaling technology, Code# 2535) and an anti-phosphorylated AMPK antibody specific to phosphorylated AMPK (Cell signaling technology, Code# 2532) were used to detect the antibody by chemiluminescent detection with an ECL system (Amersham) to quantify an amount of phosphorylated protein with LAS-1000 plus image analysis device (FUJIFILM).
Human HER2-expressing human breast cancer cell line BT-474 (purchased from American Tissue Culture Collection (ATCC)) was seeded into a 24-multiwell plate (BT-474: 1.2 x 10^5 cells/well) and cultured overnight in a carbon dioxide gas incubator (5% CO2, 37°C). […]

[2] = tested on: A549 non-small cell lung cancer cell; assay: Viable cell count using Cell Counting Kit-F; type: cell-based, human; conditions: HER2-expressing cancer, five days of culture
Protocol: (§1) BT-474 breast cancer cell, MDA-MB-453 breast cancer cell, A549 non-small cell lung cancer cell and LNCaP prostate cancer cell were used as human HER2-expressing cells while MDA-MB-231 breast cancer cell and A498 kidney cancer cell (all purchased from ATCC) were used as HER2-nonexpressing cells. Each of the cells used had been seeded into a 96-plate at 500cells/150 µL/well and cultured overnight. Each of the compounds, i.e., antimycin (final concentrations: 1, 0.1, 0.01 and 0.001 µmol/L), 2,4-dinitrophenol (final concentrations: 0.6, 0.2, 0.06 and 0.02 mmol/L), metformin (final concentrations: 25, 5, 1 and 0.2 mmol/L) and AICAR (final concentrations: 25, 5, 1 and 0.2 mmol/L) was diluted with a medium and added for 50 µL/well at a time to the final concentrations mentioned above. Following five days of culture at 37°C in 5% CO2, the cells were counted using Cell Counting Kit-F (Dojindo Laboratories).
(§2) Viable cell count using Cell Counting Kit-F was carried out by the following method according to the attached instruction. The supernatant was removed from the 96-well plate after five days of culture. Cell Counting Kit-F diluted 1000-fold with an RPMI medium (phenol red-free, serum-free) was added for 100 µL/well at a time. After 30 minutes of reaction at room temperature, fluorescence (excitation wavelength; 480 nm, fluorescent wavelength; 530 nm) was determined with a fluorescent plate reader.
(§3) From the determination results, percentage of the fluorescence level in the wells added with the compound was determined assuming that the fluorescence level in the wells without the addition of the compound (control) is 100%, and the remaining cellular quantity was determined in % with respect to that of the control.

[3] = tested on: A498 kidney cancer cell; assay: Viable cell count using Cell Counting Kit-F; type: cell-based; conditions: A498; HER2-nonexpressing cancer; five days of culture
Protocol: as §1, §2, §3
(§4) BT-474 breast cancer cell, MDA-MB-453 breast cancer cell and LNCaP prostate cancer cell were used as human HER2-expressing cells while MDA-MB-231 breast cancer cell and A498 kidney cancer cell (all purchased from ATCC) were used as HER2-nonexpressing cells. Each of the cells used had been seeded into a 96-well plate at 500 cells/150 µL/well and cultured overnight. Troglitazone (final concentrations: 25, 6.25 and 1.56 µmol/L) was diluted with a medium, and added for 50 µL/well at a time to the final concentrations mentioned above. Following five days of culture at 37°C in 5% CO2, the cells were counted using Cell Counting Kit-F (Dojindo Laboratories).
as §3, with “troglitazone” for “the compound”

[4] = tested on: MDA-MB-231 breast cancer cell; assay: Viable cell count using Cell Counting Kit-F; type: cell-based; conditions: MB231; HER2-nonexpressing cancer; five days of culture
Protocol: as §1, §2, §3, §4
as §3, with “troglitazone” for “the compound”

[5] = Example 7, two hours, antimycin 1-0.01 nmol/L, oligomycin 100-1 ng/mL, 2,4-dinitrophenol 300-3 µmol/L

| Compound | HER2 phosphorylation [1, 5] | minimum concentrations for inhibiting cell proliferation for 50% or more [2] [mmol/L] | minimum concentrations for inhibiting cell proliferation for 50% or more [3] [mmol/L] | minimum concentrations for inhibiting cell proliferation for 50% or more [4] [mmol/L] | HER2 phosphorylation ([1]; Example 2, 4-fold dilution series from 1 µmol/L in 5 steps, 2 hours) |
| --- | --- | --- | --- | --- | --- |
| O=[N+]([O-])c1ccc(O)c([N+](=O)[O-])c1 [2,4-dinitrophenol] | decreased dose-dependently | <0.02 | 0.2 | 0.2 | – |
| antimycin | decreased dose-dependently | 1e-05 | >0.0001 | 1e-05 | suppression of HER2 phosphorylation was confirmed |
